{"source": "patent US9603950B1", "about": "“Compounds of imaging agent with HDAC inhibitor for treatment of Alzheimer syndrome and method of synthesis thereof” (INSTITUTE OF NUCLEAR ENERGY RESEARCH, priority 2015, dated 2017)", "conditions_in_all_cases": "BNL-26 inhibitor labeled with 11C", "key": {"HDAC1": {"molecular_target": "HDAC1 (Homo sapiens, UniProt Q13547)", "sequence (Q13547 whole entry, species assumed)": "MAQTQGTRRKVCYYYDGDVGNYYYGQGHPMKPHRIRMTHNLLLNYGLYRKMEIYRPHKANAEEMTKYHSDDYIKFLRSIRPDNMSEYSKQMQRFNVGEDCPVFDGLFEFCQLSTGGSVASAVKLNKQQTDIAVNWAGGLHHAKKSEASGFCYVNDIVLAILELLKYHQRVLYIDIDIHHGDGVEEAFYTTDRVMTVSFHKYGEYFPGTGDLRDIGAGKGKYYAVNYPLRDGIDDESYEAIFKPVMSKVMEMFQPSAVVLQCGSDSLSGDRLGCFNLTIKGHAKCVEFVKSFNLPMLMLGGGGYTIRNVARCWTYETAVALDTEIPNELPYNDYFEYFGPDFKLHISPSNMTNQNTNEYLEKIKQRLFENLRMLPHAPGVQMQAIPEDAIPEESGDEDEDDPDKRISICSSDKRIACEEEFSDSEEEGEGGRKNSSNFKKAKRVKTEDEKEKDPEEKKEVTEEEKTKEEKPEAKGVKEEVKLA", "assay": "HDAC1 inhibition, previous study of 11C-labeled BNL-26", "format": "biochemical"}, "HDAC2": {"molecular_target": "HDAC2 (Homo sapiens, UniProt Q92769)", "sequence (Q92769 whole entry, species assumed)": "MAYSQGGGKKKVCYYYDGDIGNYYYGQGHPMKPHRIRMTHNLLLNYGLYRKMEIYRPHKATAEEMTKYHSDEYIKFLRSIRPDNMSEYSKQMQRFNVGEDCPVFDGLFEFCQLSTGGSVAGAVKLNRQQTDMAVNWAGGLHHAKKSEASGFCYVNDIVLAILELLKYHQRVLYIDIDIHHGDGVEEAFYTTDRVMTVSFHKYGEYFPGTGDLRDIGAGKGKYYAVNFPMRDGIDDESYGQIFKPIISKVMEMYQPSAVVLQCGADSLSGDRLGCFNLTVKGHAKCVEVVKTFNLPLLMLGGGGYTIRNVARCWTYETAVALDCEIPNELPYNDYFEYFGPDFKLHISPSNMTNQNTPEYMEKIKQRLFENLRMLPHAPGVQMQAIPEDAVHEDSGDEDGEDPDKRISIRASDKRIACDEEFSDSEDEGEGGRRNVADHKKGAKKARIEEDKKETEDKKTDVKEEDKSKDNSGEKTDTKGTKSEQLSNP", "assay": "HDAC2 inhibition, previous study of 11C-labeled BNL-26", "format": "biochemical"}, "[1]": {"assay": "Penetration of the brain blood vessel barrier, previous study of 11C-labeled BNL-26", "format": "in vivo"}}}
{"smiles": "CN(C)Cc1ccc(C(=O)Nc2cc(-c3ccccc3)ccc2N)cc1", "note": "[BNL-26, N-(4-amino-[1,1′-biphenyl]-3-yl)-4-((dimethylamino)methyl)benzamide]", "values": [{"measurement": "inhibitory effect of HDAC1", "setting": "HDAC1", "result": "good inhibitory effect"}, {"measurement": "inhibitory effect of HDAC2", "setting": "HDAC2", "result": "good inhibitory effect"}, {"measurement": "ability to penetrate the brain blood vessel barrier", "setting": "[1]", "result": "very good"}]}
